From PMC12799524, “Putative new biomarkers for renal transporter-mediated drug-drug interactions: Characterization as substrates of organic cation transporter 2, multidrug and toxin extrusion protein 1, and other important drug transporters” (Drug Metabolism and Disposition, 2025)

Columns and labels:
MATE1 [1] = biological target: T1, MATE1 (Homo sapiens, UniProt Q96FL8); assay: Intracellular accumulation and transcellular transport in MDCK-MATE1 monolayers; conditions: for Intracellular accumulation in MDCK-MATE1 cells compared to MDCK-VC cells / Transcellular basal to apical transport in MDCK-MATE1 cells vs MDCK-VC cells: 10 μM basal, 60 minutes
T1 sequence (Q96FL8 1-570): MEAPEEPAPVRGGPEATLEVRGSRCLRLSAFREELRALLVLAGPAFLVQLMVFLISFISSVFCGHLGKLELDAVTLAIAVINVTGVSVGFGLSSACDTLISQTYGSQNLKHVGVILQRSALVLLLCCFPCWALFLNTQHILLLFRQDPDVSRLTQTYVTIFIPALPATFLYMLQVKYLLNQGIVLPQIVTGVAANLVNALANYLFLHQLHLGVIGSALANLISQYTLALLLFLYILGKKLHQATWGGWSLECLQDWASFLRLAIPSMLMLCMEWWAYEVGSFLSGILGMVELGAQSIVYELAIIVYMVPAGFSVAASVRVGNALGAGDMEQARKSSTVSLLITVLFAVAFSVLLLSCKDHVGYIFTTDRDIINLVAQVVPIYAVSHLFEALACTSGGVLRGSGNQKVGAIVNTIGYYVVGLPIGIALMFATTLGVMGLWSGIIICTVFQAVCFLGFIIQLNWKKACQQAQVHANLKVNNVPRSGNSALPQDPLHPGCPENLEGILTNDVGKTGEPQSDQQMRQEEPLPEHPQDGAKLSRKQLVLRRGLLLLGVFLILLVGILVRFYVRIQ
Method: (§1) The intracellular accumulation and transcellular, basal to apical transport experiments were performed as previously described in monolayers of polarized single-transfected (MDCK-OCT2, MDCK-MATE1) and double-transfected (MDCK-OCT2-MATE1) MDCK cells, MDCK control cells (MDCK-VC), or Caco-2 cells.[22] In brief, cell monolayers were grown in cell culture inserts on porous membranes. For MDCK-VC, MDCK-OCT2 and Caco-2, 5 × 10^5 cells were used per well; for MDCK-OCT2-MATE1, 6 × 10^5 cells were used, and for MDCK-MATE1, 8 × 10^5 cells were used per well. Cells were grown to confluence for 72 hours, induced with 10 mM sodium butyrate 48 hours after seeding for 24 hours (MDCK only), and subsequently used for transport experiments.
(§2) In general, after the cell culture medium was removed from both sides of the monolayers, cells were washed at 37 °C with transport buffer of the same composition as described in the previous section. Experiments were started by replacing the medium in the basal compartment with medium containing the putative biomarkers or [^3H]-labeled positive control substrates. The pH of the buffer on the basal side was 7.3 and 6.5 on the apical side for MDCK cells, whereas it was 7.3 on either side for Caco-2 cells. Cells were incubated at 37 °C and the buffer from the apical compartment was taken after 60 minutes for MDCK cells and after 240 minutes for Caco-2 cells. In case of Caco-2 cells, endogenous P-gp was inhibited by adding 2 μM of valspodar to the basal compartment. To measure the cellular accumulation of the test compounds, the remaining medium was removed at the end of the incubation period and the cell monolayers were rapidly rinsed 3 times with ice-cold 0.9% NaCl in water. Filters were detached from the chambers and placed into 500 μL of 80% MeOH containing the aforementioned recovery standards to lyse cells for subsequent LC-MS analysis or into 600 μL of 0.2% SDS (control experiments only). In the control experiments, the radioactivity of the collected apical medium and the solubilized cell monolayers and protein concentrations of the cell lysates were measured in the same way as described for the experiments with HEK cells.
(§3) The intracellular background of all 5 compounds in HEK cells at the beginning of the uptake experiments was investigated 48 hours after seeding without incubation with transport buffer (ie, 0 minutes). […] Then, cells were lysed with ice-cold 80% MeOH containing the aforementioned recovery standards. In addition, the impact of a 5-minute incubation period with transport buffer without added substance was investigated.

MATE1 [2] = biological target: T1, MATE1; assay: Uptake assay in HEK-MATE1 vs HEK-VC cells (pH 8.0); conditions: for Uptake in HEK-MATE1 cells compared to HEK-VC cells: 10 μM substrate; for Uptake in HEK-MATE1 cells compared to HEK-VC cells (in words) / Effect of cimetidine on uptake in HEK-MATE1 cells: 10 and 100 μM substrate; for Uptake in HEK-MATE1 cells compared to HEK-VC cells (in words): pH 8.0; for Effect of cimetidine on uptake in HEK-MATE1 cells: cimetidine 50 μM; for In Vitro MATE1 (substrate class): summary of in vitro uptake/transport results
Method: (§4) Transport experiments were performed 48 hours after seeding.
as §3

human OAT1 = biological target: T2, human OAT1 (Homo sapiens, UniProt Q4U2R8); assay: Uptake assay in HEK-OAT1 vs HEK-VC cells; assay type: in vitro ADME
T2 construct: expressed in transfected cells; host or cells: HEK293 (HEK-OAT1), plasmid pOAT1.31 in pcDNA3.1/Hy(-)
T2 sequence (Q4U2R8 1-563): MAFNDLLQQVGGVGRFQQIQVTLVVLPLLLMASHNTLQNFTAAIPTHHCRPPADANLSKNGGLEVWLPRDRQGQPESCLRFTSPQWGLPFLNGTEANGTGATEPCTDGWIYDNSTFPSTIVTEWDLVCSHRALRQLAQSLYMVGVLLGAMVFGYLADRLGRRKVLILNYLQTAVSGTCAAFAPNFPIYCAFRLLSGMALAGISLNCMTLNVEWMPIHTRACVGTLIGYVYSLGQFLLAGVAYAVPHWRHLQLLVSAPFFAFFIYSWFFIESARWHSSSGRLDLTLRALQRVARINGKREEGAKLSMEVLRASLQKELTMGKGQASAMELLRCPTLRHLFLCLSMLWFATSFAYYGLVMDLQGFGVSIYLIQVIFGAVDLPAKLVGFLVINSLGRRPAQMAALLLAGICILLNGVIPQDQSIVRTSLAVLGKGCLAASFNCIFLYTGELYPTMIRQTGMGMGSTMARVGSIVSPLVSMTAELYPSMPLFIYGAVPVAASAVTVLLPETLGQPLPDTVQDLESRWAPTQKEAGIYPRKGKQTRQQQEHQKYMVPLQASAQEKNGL
Method: as §4

P-gp = P-gp (Homo sapiens, UniProt P08183); assay: Intracellular accumulation and basal to apical transport in Caco-2 cells with/without valspodar; conditions: for In Vitro P-gp (substrate class): Caco-2 cells, valspodar
Chain of P-gp (P08183 whole entry): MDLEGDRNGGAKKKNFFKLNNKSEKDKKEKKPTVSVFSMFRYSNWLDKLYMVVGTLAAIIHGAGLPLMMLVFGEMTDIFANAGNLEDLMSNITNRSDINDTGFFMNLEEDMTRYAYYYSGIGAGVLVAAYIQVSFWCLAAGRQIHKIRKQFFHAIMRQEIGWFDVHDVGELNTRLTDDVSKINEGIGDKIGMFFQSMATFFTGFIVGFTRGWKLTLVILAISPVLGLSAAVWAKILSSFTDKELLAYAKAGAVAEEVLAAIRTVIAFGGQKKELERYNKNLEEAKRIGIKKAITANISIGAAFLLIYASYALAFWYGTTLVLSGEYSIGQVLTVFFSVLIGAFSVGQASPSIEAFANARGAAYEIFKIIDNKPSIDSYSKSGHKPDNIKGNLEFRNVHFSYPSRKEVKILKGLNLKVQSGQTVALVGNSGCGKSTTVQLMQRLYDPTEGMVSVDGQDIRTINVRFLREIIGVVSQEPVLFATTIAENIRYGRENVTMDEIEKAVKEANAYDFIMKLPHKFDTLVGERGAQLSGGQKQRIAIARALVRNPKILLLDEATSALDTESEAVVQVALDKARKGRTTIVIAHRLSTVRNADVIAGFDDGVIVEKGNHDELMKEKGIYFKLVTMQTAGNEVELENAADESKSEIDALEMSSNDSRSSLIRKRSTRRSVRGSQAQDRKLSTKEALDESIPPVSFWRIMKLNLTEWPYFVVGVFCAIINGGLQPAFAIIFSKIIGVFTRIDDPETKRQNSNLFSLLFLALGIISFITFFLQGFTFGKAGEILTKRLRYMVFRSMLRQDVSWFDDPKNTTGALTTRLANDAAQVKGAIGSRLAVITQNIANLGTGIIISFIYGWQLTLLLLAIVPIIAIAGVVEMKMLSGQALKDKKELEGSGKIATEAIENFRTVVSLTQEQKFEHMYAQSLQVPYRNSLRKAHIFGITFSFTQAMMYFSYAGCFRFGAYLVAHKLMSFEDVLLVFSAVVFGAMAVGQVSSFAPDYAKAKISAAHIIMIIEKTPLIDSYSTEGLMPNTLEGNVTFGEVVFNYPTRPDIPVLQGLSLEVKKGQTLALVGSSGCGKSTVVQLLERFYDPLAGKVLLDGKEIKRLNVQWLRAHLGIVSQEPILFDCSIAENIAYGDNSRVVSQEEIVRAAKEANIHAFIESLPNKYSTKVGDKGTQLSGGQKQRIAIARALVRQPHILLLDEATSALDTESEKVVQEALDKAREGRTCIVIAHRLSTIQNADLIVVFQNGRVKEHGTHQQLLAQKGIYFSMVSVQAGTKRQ
Method: as §1, §2, §3

[3] = 5 minutes, pH 8.0, HEK-VC set to 100%
[4] = 10 μM substrate, 240 minutes, valspodar 2 μM

Row | Compound | Intracellular accumulation in MDCK-MATE1 cells compared to MDCK-VC cells (MATE1 [1]) | Uptake in HEK-MATE1 cells compared to HEK-VC cells (MATE1 [2]; [3]) [%] | Uptake in HEK-MATE1 cells compared to HEK-VC cells (in words) (MATE1 [2]; 5 minutes) | Effect of cimetidine on uptake in HEK-MATE1 cells (MATE1 [2]; 5 minutes) | In Vitro MATE1 (substrate class) (MATE1 [2]) | In Vitro OAT1 (substrate class) (human OAT1) | Effect of valspodar on basal to apical translocation in Caco-2 cells (P-gp; [4]) | In Vitro P-gp (substrate class) (P-gp) | Transcellular transport in Caco-2 cells with valspodar, of the respective control (P-gp; 10 μM substrate, 240 minutes, valspodar 2 μM, without valspodar set to 100%) [%] | Transcellular basal to apical transport in MDCK-MATE1 cells vs MDCK-VC cells (MATE1 [1]) | Intracellular background in MDCK-MATE1 cells (MATE1 [1]; 60 minutes without added substance) | Intracellular background in HEK-MATE1 cells compared to HEK-VC cells (MATE1 [2]; 0 minutes and 5 minutes without added substance) | Uptake ratio in HEK-MATE1 cells compared to HEK-VC cells (MATE1 [2]; 100 μM substrate, 5 minutes, pH 8.0, HEK-VC set to 100%) [%]
1 | NCCc1ccc(O)cc1 [Tyramine, tyramine] | no significant difference | 545 | significantly higher | significantly reduced | ++ | - | no significant effect | - |  |  |  |  | 
2 | Cn1cnc(CCN)c1 [1-Methylhistamine, 1-methylhistamine] | no significant difference | 778 | significantly higher | significantly reduced | ++ | - | significantly reduced | 0 (significant uptake in HEK cells, but less than 300% of respective control cells or significant reduction of transcellular transport in Caco-2 cells, but reduction not below 50% of respective control without valspodar) | 67 |  |  |  | 
3 | C[N+](C)(C)CCCCC(=O)[O-] [5-Amino valeric acid betaine, 5-amino valeric acid betaine] | significant reduction |  | significantly lower |  | + | - | no significant effect | - |  | not statistically significant | no 5-amino valeric acid betaine could be detected | lower | 
4 | NCCc1c[nH]c2ccc(O)cc12 [Serotonin, serotonin] | no significant difference | 2469 | significantly higher | significantly reduced | ++ | - | no significant effect | - |  | considerably increased |  |  | 1461
